As a reminder, the logP is a log measure of how a compound divides between an organic and an aqueous phase.

The subject of data set [1] is HT-22. The experiment in a line: In vitro safety index as ratio of MTC/PC50 was determined for HT-22 hippocampal cell cultures of mouse by LDH assay. Type of data set: functional.
In data set [2] the test system is HT-22. Kind of data set: In vitro safety index as ratio of MTC/PC50 was determined for HT-22 hippocampal cell cultures of mouse by MTT reduction assay. Type of data set: functional. On the technique in general: Tetrazolium dyes change colour on reduction, which living cells bring about.
Data set [3] deals with HT-22. The experiment in a line: In vitro maximum tolerated concentration against HT-22 hippocampal cell cultures of mouse by LDH assay. Type of data set: functional.
Data set [4] deals with HT-22. The experiment in a line: In vitro maximum tolerated concentration against HT-22 hippocampal cell cultures of mouse by MTT reduction assay. The format is functional.
The subject of data set [5] is HT-22. The experiment in a line: In vitro protective concentration of compound for HT-22 hippocampal cell cultures of mouse against 2 mM L-homocysteic acid in LDH assay. The format is functional.
In data set [6] the test system is HT-22. Kind of data set: In vitro protective concentration of compound for HT-22 hippocampal cell cultures of mouse against 2 mM L-homocysteic acid in MTT reduction assay. The format is functional.
Data set [7] concerns HT-22. Kind of data set: In vitro toxic concentration against HT-22 hippocampal cell cultures of mouse by LDH assay. The format is functional. The conditions noted are these: read-out: TC50 (the source's name).
The test system of data set [8] is HT-22. The experiment in a line: In vitro toxic concentration against HT-22 hippocampal cell cultures of mouse by MTT reduction assay. Type of data set: functional. The conditions noted are these: read-out: TC50 (the source's name).
Data set [9] can be described thus: Partition coefficient (logP). Type of data set: physicochemical. The conditions noted are these: octanol/water.

As to `COC(CNC1Oc2ccc(C(=O)c3ccccc3)c(O)c2NC1c1ccccc1)OC` (configuration not stated), the Safety index in the data set on HT-22 [1] is given as above 100; in the data set with HT-22 [2], 20. The MTC is above 250 µM with HT-22 [3] and 100 µM in the data set with HT-22 [4]. Besides, the PC50 in the data set with HT-22 [5] was 2.5 µM; in the data set on HT-22 [6], 5 µM. Besides, the CC50 in the data set on HT-22 [7] and in the data set on HT-22 [8] was above 250 µM each time.

Consider `O=C(c1ccccc1)c1ccc2c(c1O)NC(c1ccccc1)C(NCC(c1ccccc1)c1ccccc1)O2` (configuration not stated), for which the Safety index with HT-22 [1] is above 50; in the data set on HT-22 [2], above 25. For the same compound, the MTC with HT-22 [3] and with HT-22 [4] was above 250 µM in each case. Further, the PC50 in the data set on HT-22 [5] was 5 µM; in the data set on HT-22 [6], 10 µM. For the same compound, the CC50 in the data set with HT-22 [7] and in the data set with HT-22 [8] was above 250 µM in each case.

As for `O=C(c1ccccc1)c1ccc2c(c1O)NC1(CCCCC1)C(N1CCOCC1)O2` (configuration not stated), the Safety index stood at 2.1 in the data set with HT-22 [1] and 1.8 with HT-22 [2]. For the same compound, the MTC with HT-22 [3] and in the data set on HT-22 [4] was 5 µM each time. For the same compound, the PC50 is 2.4 µM in the data set on HT-22 [5] and 2.8 µM in the data set on HT-22 [6]. Moreover, the CC50 is 10.4 µM in the data set on HT-22 [7] and 8.2 µM with HT-22 [8].

On to `CC1(C)Nc2c(ccc(C(=O)c3ccccc3)c2O)OC1O` (configuration not stated), for which the values for the Safety index with HT-22 [1] and with HT-22 [2] were 91 and 10.3, respectively. Also, the MTC in the data set on HT-22 [3] was 100 µM; with HT-22 [4], 10 µM. For the same compound, the PC50 in the data set on HT-22 [5] stood at 1.1 µM; in the data set with HT-22 [6], 0.97 µM. Besides, the CC50 was above 250 µM with HT-22 [7] and 48 µM with HT-22 [8].

In the case of `CC(C)(C)C1COc2c(NCCc3ccccc3)ccc(C(=O)c3ccccc3)c2N1` (configuration not stated), the Safety index in the data set on HT-22 [1] was above 62.5; in the data set on HT-22 [2], above 100. Moreover, the MTC with HT-22 [3] and in the data set on HT-22 [4] was above 250 µM each time. The PC50 worked out at 4 µM in the data set with HT-22 [5] and 2.5 µM in the data set on HT-22 [6]. Further, the CC50 in the data set with HT-22 [7] and in the data set on HT-22 [8] was above 250 µM throughout. In data set [9], this compound registered a logP of 5.28.

As for `O=C(c1ccccc1)c1ccc2c(c1O)NC1(CCCCC1)C(O)O2` (configuration not stated), the Safety index with HT-22 [1] is on record as 16.6; in the data set on HT-22 [2] it was 6.2. Besides, the MTC was determined as 50 µM in the data set on HT-22 [3] and 25 µM in the data set on HT-22 [4]. Further, the PC50 in the data set on HT-22 [5] came to 3 µM; in the data set on HT-22 [6], 4 µM. Besides, the CC50 is above 250 µM in the data set with HT-22 [7] and 178 µM in the data set on HT-22 [8].

`CC1(C)Nc2c(ccc(C(=O)c3ccccc3)c2O)OC1N1CCCCC1` (configuration not stated): the Safety index in the data set with HT-22 [1] was found to be 24.4; in the data set with HT-22 [2], 3.1. The MTC with HT-22 [3] came out at 100 µM; with HT-22 [4], 10 µM. Moreover, the PC50 amounted to 4.1 µM with HT-22 [5] and 3.2 µM in the data set with HT-22 [6]. Further, the CC50 amounted to 120 µM with HT-22 [7] and 72 µM in the data set on HT-22 [8].

As for `CC(C)CNC1Oc2ccc(C(=O)c3ccccc3)c(O)c2NC1(C)C` (configuration not stated), the figures for the Safety index with HT-22 [1] and in the data set on HT-22 [2] were 185 and 24.4, respectively. The MTC in the data set on HT-22 [3] worked out at 100 µM; in the data set on HT-22 [4], 10 µM. Also, the PC50 in the data set with HT-22 [5] amounted to 0.54 µM; with HT-22 [6], 0.41 µM. Further, the figures for the CC50 with HT-22 [7] and in the data set with HT-22 [8] were 160 µM and 45 µM, respectively.

In the case of `O=C(c1ccccc1)c1ccc2c(c1O)NC1(CCCCC1)C(NCC1CCCCC1)O2` (configuration not stated), the figures for the Safety index with HT-22 [1] and in the data set with HT-22 [2] were 667 and 20.8, respectively. The MTC in the data set with HT-22 [3] was determined as 100 µM; in the data set with HT-22 [4] it was 5 µM. Also, the PC50 in the data set on HT-22 [5] is 0.15 µM; in the data set with HT-22 [6] it was 0.24 µM. The CC50 in the data set on HT-22 [7] was above 250 µM; with HT-22 [8], 16.5 µM.

Consider `CN(CC1OCCO1)C1Oc2ccc(C(=O)c3ccccc3)c(O)c2NC12CCCCC2` (configuration not stated), for which the Safety index in the data set on HT-22 [1] is 11.4; in the data set with HT-22 [2] it was 2. Besides, the MTC is 25 µM in the data set on HT-22 [3] and 5 µM in the data set with HT-22 [4]. The PC50 was 2.2 µM with HT-22 [5] and 2.4 µM in the data set on HT-22 [6]. Also, the figures for the CC50 in the data set on HT-22 [7] and in the data set with HT-22 [8] were above 250 µM and 25 µM, respectively.

In the case of `O=C(c1ccccc1)c1ccc(NCc2ccccc2)c2c1NC1(CCCC1)CO2`, the Safety index with HT-22 [1] is reported as above 17.4; in the data set on HT-22 [2], above 15.8. The MTC in the data set with HT-22 [3] and in the data set on HT-22 [4] was above 250 µM in each case. In addition, the PC50 in the data set with HT-22 [5] was determined as 14.4 µM; in the data set with HT-22 [6], 15.8 µM. Also, the CC50 in the data set with HT-22 [7] and in the data set on HT-22 [8] was above 250 µM in each case. Further, the logP in data set [9] came to 5.11.

As to `O=C(c1ccccc1)c1ccc2c(c1O)NC1(CCCCC1)C(N1CCCCC1)O2` (configuration not stated), the Safety index in the data set on HT-22 [1] is on record as above 13.5; in the data set on HT-22 [2], 8.1. In addition, the MTC with HT-22 [3] is above 250 µM; in the data set on HT-22 [4], 100 µM. Moreover, the PC50 came out at 18.5 µM in the data set on HT-22 [5] and 12.3 µM in the data set with HT-22 [6]. Further, the CC50 in the data set with HT-22 [7] was above 250 µM; in the data set with HT-22 [8], 250 µM.

For `CN(CC1OCCO1)C1Oc2ccc(C(=O)c3ccccc3)c(O)c2NC1c1ccccc1` (configuration not stated), the Safety index in the data set on HT-22 [1] was above 250; with HT-22 [2], 200. Further, the MTC is above 250 µM in the data set with HT-22 [3] and 100 µM in the data set with HT-22 [4]. For the same compound, the PC50 is 1 µM with HT-22 [5] and 0.5 µM in the data set with HT-22 [6]. For the same compound, the CC50 with HT-22 [7] and in the data set with HT-22 [8] was above 250 µM throughout. The same compound registered a logP in data set [9] of 5.57.

For the compound `O=C(c1ccccc1)c1ccc2c(c1O)NC1(CCCC1)C(NCC1CCCC1)O2` (configuration not stated), the Safety index in the data set with HT-22 [1] is given as 30.5; with HT-22 [2], 3.6. Besides, the MTC with HT-22 [3] amounted to 25 µM; with HT-22 [4], 5 µM. The PC50 came out at 0.82 µM in the data set on HT-22 [5] and 1.39 µM in the data set on HT-22 [6]. In addition, the CC50 with HT-22 [7] turned out to be 53 µM; in the data set with HT-22 [8], 27 µM.

Consider `CC1(C)Nc2c(ccc(C(=O)c3ccccc3)c2O)OC1NC1CCCCC1` (configuration not stated), for which the figures for the Safety index in the data set on HT-22 [1] and with HT-22 [2] were 47.6 and 4.2, respectively. Moreover, the MTC amounted to 100 µM with HT-22 [3] and 10 µM in the data set with HT-22 [4]. Further, the PC50 in the data set with HT-22 [5] turned out to be 2.1 µM; in the data set on HT-22 [6], 2.4 µM. The results for the CC50 in the data set with HT-22 [7] and in the data set on HT-22 [8] were 120 µM and 29 µM, respectively.

With `CC(C)CNC1Oc2ccc(C(=O)c3ccccc3)c(O)c2NC1c1ccccc1` (configuration not stated), the Safety index was 1 with HT-22 [1] and below 1 in the data set on HT-22 [2]. For the same compound, the MTC with HT-22 [3] was determined as 10 µM; with HT-22 [4], 5 µM. Also, the PC50 in the data set on HT-22 [5] and in the data set with HT-22 [6] was 10 µM each time. For the same compound, the CC50 was 79 µM in the data set on HT-22 [7] and 108 µM in the data set with HT-22 [8].

With `CC1(C)Nc2c(ccc(C(=O)c3ccccc3)c2O)OC1NCCc1ccccc1` (configuration not stated), the Safety index turned out to be 24.4 with HT-22 [1] and 5 in the data set with HT-22 [2]. The MTC in the data set on HT-22 [3] was 100 µM; in the data set on HT-22 [4], 10 µM. For the same compound, the results for the PC50 with HT-22 [5] and in the data set on HT-22 [6] were 4.1 µM and 2 µM, respectively. In addition, the values for the CC50 with HT-22 [7] and with HT-22 [8] were 199 µM and 66 µM, respectively.

As for `CC1(C)Nc2c(ccc(C(=O)c3ccccc3)c2O)OC1N1CCOCC1` (configuration not stated), the Safety index in the data set on HT-22 [1] is listed as 66.7; in the data set with HT-22 [2] it was 5.9. In addition, the MTC with HT-22 [3] was found to be 100 µM; in the data set on HT-22 [4], 10 µM. Moreover, the results for the PC50 in the data set with HT-22 [5] and with HT-22 [6] were 1.5 µM and 1.7 µM, respectively. Further, the results for the CC50 in the data set with HT-22 [7] and in the data set on HT-22 [8] were 190 µM and 75 µM, respectively.

The values are drawn from ChEMBL document CHEMBL1142676, “Novel 2-alkylamino-1,4-benzoxazine derivatives as potent neuroprotective agents: structure-activity relationship studies” (J Med Chem, 2005).
